Measurements published in patent publication US8927500B2, “Peptidomimetic macrocycles” (Aileron Therapeutics, Inc., priority 2012, dated 2015).
Where a SMILES comes first, the peptide text is derived from it. Bridges are numbered along the chain shown (N, C = ends). [ ]: non-standard residue; d: D form. R8 = C=CCCCCCC[C@@](C)(N)C(=O)O; Cha = N[C@@H](CC1CCCCC1)C(=O)O; hLeu = CC(C)CC[C@H](N)C(=O)O; S5 = C=CCCC[C@](C)(N)C(=O)O; Nle = CCCC[C@H](N)C(=O)O; Ac3c = NC1(C(=O)O)CC1; Aib = CC(C)(N)C(=O)O

Key:
SJSA-1 cells = test: Cell lysis by peptidomimetic macrocycles (LDH release); assay type: cell-based; conditions: 1 h at 37C
Protocol: On the day of the assay, media was exchanged with RPMI 1% FBS media, 90 uL of media per well.
10 mM stock solutions of the peptidomimetic macrocycles were prepared in 100% DMSO.
The negative control (non-lytic) sample was 0.5% DMSO alone and positive control (lytic) samples include 10 uM Melittin and 1% Triton X-100.
Cell plates were incubated for 1 hour at 37C. After the 1 hour incubation, the morphology of the cells is examined by microscope and then the plates were centrifuged at 1200 rpm for 5 minutes at room temperature. 40 uL of supernatant for each peptidomimetic macrocycle and control sample is transferred to clear assay plates.

Caspase 3 = Caspase 3 detection assay in SJSA1 cells; assay type: cell-based; conditions: 48 h, Caspase 3 activation over DMSO-treated cells; for caspase 0.3 uM: 0.3 uM peptide; for caspase 3 uM: 3 uM peptide; for caspase 10 uM: 10 uM peptide; for caspase 30 uM: 30 uM peptide
MDM2 = MDM2 (Homo sapiens, UniProt Q00987); test: Competitive fluorescence polarization assay for MDM2; assay type: binding; conditions: competitive FP assay, MDM2; for IC50: read-out: IC50 (MDM2); for Ki: read-out: Ki (MDM2)
MDM2, sequence (Q00987 1-125): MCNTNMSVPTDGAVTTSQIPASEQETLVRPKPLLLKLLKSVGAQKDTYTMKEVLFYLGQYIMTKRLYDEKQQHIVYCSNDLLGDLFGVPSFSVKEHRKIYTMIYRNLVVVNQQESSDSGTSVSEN

MDMX = molecular target: T1, MDMX (Homo sapiens, UniProt O15151); test: Competitive fluorescence polarization assay for MDMX; assay type: binding; conditions: competitive FP assay; for IC50: read-out: IC50 (MDMX); for Ki: read-out: Ki (MDMX)
T1 sequence (O15151 1-125): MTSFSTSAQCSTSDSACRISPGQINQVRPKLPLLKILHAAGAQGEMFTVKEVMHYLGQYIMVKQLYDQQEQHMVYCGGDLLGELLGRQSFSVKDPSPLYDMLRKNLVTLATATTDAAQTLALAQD

| SMILES | 6.25 uM % Lysed cells (1 h LDH) (SJSA-1 cells) [%] | 25 uM % Lysed cells (1 h LDH) (SJSA-1 cells) [%] | 50 uM % Lysed cells (1 h LDH) (SJSA-1 cells) [%] | caspase 0.3 uM (Caspase 3) | caspase 3 uM (Caspase 3) | caspase 10 uM (Caspase 3) | caspase 30 uM (Caspase 3) | IC50 (MDM2) [nM] | Ki (MDM2) [nM] | IC50 (MDMX) [nM] | Ki (MDMX) [nM] |
| --- | --- | --- | --- | --- | --- | --- | --- | --- | --- | --- | --- |
| CC[C@H](C)[C@H](NC(=O)[C@H](C)NC(=O)[C@H](C)NC(=O)[C@]1(C)CCCC=CCCCCCC[C@@](C)(NC(=O)[C@H](Cc2ccccc2)NC(=O)[C@@H](NC(=O)[C@H](CC(C)C)NC(C)=O)[C@@H](C)O)C(=O)N[C@@H](C)C(=O)N[C@@H](Cc2ccc(O)cc2)C(=O)N[C@@H](Cc2c[nH]c3ccccc23)C(=O)N[C@@H](C)C(=O)N[C@@H](CCC(N)=O)C(=O)N[C@@H](CC(C)C)C(=O)N1)C(=O)N[C@H](CC(C)C)C(N)=O (single isomer, unassigned) [compound 81] | 1 | 0 | 0 | 1 | 1 | 6 | 21 |  |  |  |  |
| CC(=O)N[C@@H](CC(C)C)C(=O)N[C@H](C(=O)N[C@@H](Cc1ccccc1)C(=O)N[C@]1(C)CCCCCCC=CCCC[C@@](C)(C(=O)N[C@@H](CO)C(=O)N[C@@H](C)C(=O)N[C@@H](C)C(N)=O)NC(=O)[C@H](C2CCCC2)NC(=O)[C@H](CCC(N)=O)NC(=O)[C@H](C)NC(=O)[C@H](Cc2c[nH]c3ccccc23)NC(=O)[C@H](Cc2ccc(O)cc2)NC(=O)[C@H](CCC(=O)O)NC1=O)[C@@H](C)O (single isomer, unassigned) [compound 149] | 6 | 7 | 21 | 1 | 2 | 4 | 10 |  |  |  |  |
| CC(=O)N[C@@H](Cc1ccccc1)C(=O)N[C@]1(C)CCCCCCC=CCCC[C@@](C)(C(=O)N[C@@H](C)C(=O)N[C@@H](C)C(=O)N[C@@H](CC(C)C)C(N)=O)NC(=O)[C@H](CC(C)C)NC(=O)C2(CC2)NC(=O)[C@H](CCC(=O)O)NC(=O)[C@H](Cc2c[nH]c3ccccc23)NC(=O)[C@H](Cc2ccc(O)cc2)NC(=O)[C@H](C)NC1=O [compound 15] (Ac-F[R8]AYWE[Ac3c]L[S5]AAL-NH2; staple 2-9) | 1 | 2 | 5 |  |  |  |  | 10 to 100 | 10 to 100 | 100 to 1000 | 10 to 100 |
| CC(=O)N[C@@H](Cc1ccccc1)C(=O)N[C@]1(C)CCCCCCC=CCCC[C@@](C)(C(=O)N[C@@H](C)C(=O)N[C@@H](C)C(=O)N[C@@H](Cc2ccccc2)C(N)=O)NC(=O)[C@H](CC(C)C)NC(=O)C2(CC2)NC(=O)[C@H](CCC(=O)O)NC(=O)[C@H](Cc2c[nH]c3ccccc23)NC(=O)[C@H](Cc2ccc(O)cc2)NC(=O)[C@H](C)NC1=O [compound 18] (Ac-F[R8]AYWE[Ac3c]L[S5]AAF-NH2; staple 2-9) | 0 | 2 | 4 |  |  |  |  | 10 to 100 | < 10 | 10 to 100 | < 10 |
| CC[C@H](C)[C@H](NC(=O)[C@H](C)NC(=O)[C@H](C)NC(=O)[C@]1(C)CCCC=CCCCCCC[C@@](C)(NC(=O)[C@H](Cc2ccccc2)NC(C)=O)C(=O)N[C@@H](C)C(=O)N[C@@H](Cc2ccc(O)cc2)C(=O)N[C@@H](Cc2c[nH]c3ccccc23)C(=O)N[C@@H](CCC(=O)O)C(=O)NC2(CC2)C(=O)N[C@@H](CC(C)C)C(=O)N1)C(N)=O [compound 19] (Ac-F[R8]AYWE[Ac3c]L[S5]AAI-NH2; staple 2-9) | 2 | 3 | 21 |  |  |  |  | 100 to 1000 | 10 to 100 | 10 to 100 | 10 to 100 |
| CC(=O)N[C@@H](Cc1ccccc1)C(=O)N[C@]1(C)CCCCCCC=CCCC[C@@](C)(C(=O)N[C@@H](C)C(=O)N[C@@H](C)C(=O)NC(C)(C)C(N)=O)NC(=O)[C@H](CC(C)C)NC(=O)C2(CC2)NC(=O)[C@H](CCC(=O)O)NC(=O)[C@H](Cc2c[nH]c3ccccc23)NC(=O)[C@H](Cc2ccc(O)cc2)NC(=O)[C@H](C)NC1=O [compound 22] (Ac-F[R8]AYWE[Ac3c]L[S5]AA[Aib]-NH2; staple 2-9) | 0 | 0 | 0 |  |  |  |  | 10 to 100 | < 10 | 10 to 100 | 10 to 100 |
| CC(=O)N[C@@H](Cc1c[nH]cn1)C(=O)N[C@@H](CC(C)C)C(=O)N[C@H](C(=O)N[C@@H](Cc1ccccc1)C(=O)N[C@]1(C)CCCCCCC=CCCC[C@@](C)(C(=O)N[C@@H](C)C(=O)N[C@@H](C)C(=O)N[C@@H](CCC(C)C)C(=O)N[C@@H](C)C(N)=O)NC(=O)[C@H](CC(C)C)NC(=O)[C@H](CCC(N)=O)NC(=O)[C@H](Cc2c[nH]cn2)NC(=O)[C@H](Cc2c[nH]c3ccccc23)NC(=O)[C@H](Cc2c[nH]cn2)NC(=O)[C@H](Cc2c[nH]cn2)NC1=O)[C@@H](C)O [compound 32] (Ac-HLTF[R8]HHWHQL[S5]AA[hLeu]A-NH2; staple 5-12) | 0 | 2 | 0 |  |  |  |  | 10 to 100 | < 10 | 100 to 1000 | 10 to 100 |
| CCCC[C@H](NC(=O)[C@H](C)NC(=O)[C@H](CCC(N)=O)NC(=O)[C@H](Cc1c[nH]cn1)NC(=O)[C@]1(C)CCCC=CCCCCCC[C@@](C)(NC(=O)[C@H](Cc2ccccc2)NC(C)=O)C(=O)N[C@@H](C)C(=O)N[C@@H](Cc2ccc(O)cc2)C(=O)N[C@@H](Cc2c[nH]c3ccccc23)C(=O)N[C@@H](CO)C(=O)N[C@@H](C)C(=O)N[C@@H](CC(C)C)C(=O)N1)C(N)=O [compound 39] (Ac-F[R8]AYWSAL[S5]HQA[Nle]-NH2; staple 2-9) | 0 | 0 | 3 |  |  |  |  | > 1000 | 100 to 1000 | 100 to 1000 | 100 to 1000 |
| CC(=O)N[C@@H](Cc1ccccc1)C(=O)N[C@]1(C)CCCCCCC=CCCC[C@@](C)(C(=O)N[C@@H](Cc2c[nH]cn2)C(=O)N[C@@H](CCCNC(=N)N)C(=O)N[C@@H](Cc2ccccc2)C(=O)N[C@@H](CC2CCCCC2)C(N)=O)NC(=O)[C@H](CC(C)C)NC(=O)[C@H](CCC(N)=O)NC(=O)[C@H](Cc2c[nH]cn2)NC(=O)[C@H](Cc2c[nH]c3ccccc23)NC(=O)[C@H](Cc2c[nH]cn2)NC(=O)[C@H](Cc2c[nH]cn2)NC1=O [compound 55] (Ac-F[R8]HHWHQL[S5]HRF[Cha]-NH2; staple 2-9) | 1 | 9 | 13 |  |  |  |  | > 1000 | 100 to 1000 | > 1000 | 100 to 1000 |
| CC(=O)N[C@@H](CC(C)C)C(=O)N[C@H](C(=O)N[C@@H](Cc1ccccc1)C(=O)N[C@]1(C)CCCCCCC=CCCC[C@@](C)(C(=O)N[C@@H](C)C(=O)N[C@@H](C)C(=O)N[C@@H](Cc2c[nH]c3ccccc23)C(=O)N[C@H](C)C(N)=O)NC(=O)[C@H](CC(C)C)NC(=O)[C@H](CCC(N)=O)NC(=O)[C@H](C)NC(=O)[C@H](Cc2c[nH]c3ccccc23)NC(=O)[C@H](Cc2ccc(O)cc2)NC(=O)[C@H](C)NC1=O)[C@@H](C)O [compound 211] (Ac-LTF[R8]AYWAQL[S5]AAW[dA]-NH2; staple 4-11) | 5 | 3 | 1 |  |  |  |  | < 10 | < 10 | 100 to 1000 | 10 to 100 |
